{FAM} = fluorescein (FAM) label
Tests used:
[1] = test system: A549 NSCLC xenograft tumors; assay: Tumor growth of NSCLC xenografts under G3139 dosing schedules (Example 4); format: in vivo, mice
Experimental: In vivo tumor model: NSCLC xenograft tumors were established in the flank of male athymic nude mice by injecting subcutaneously 5 to 9×10^6 A549 tumor cells. […] Twenty mg/kg injections every other days for 4 weeks (total 14 days) were also carried. At 30 mg/kg and 40 mg/kg, mice were injected every two- or three-day intervals respectively. (FIG. 6). The tumor growth were measured 15 - 55 days post-implantation and the tumor volumes were calculated based on the formula: [(width)^2×length]/2. […] Tumors in mice injected with higher doses but interminttently with 2-3 days intervals also grew slower than mice treated with daily doses at lower doses.

[2] = test system: PC-3-Bcl-2 xenograft tumors; conditions: mouse, in vivo
Experimental: When the average tumor size was 65 mm^3, animals were randomized and the right flank of the xenograft tumor bearing mice were pre-treated with 5 Gy X-ray prior to administration of fluoresceinated G3139 oligonucleotide intravenously at a low dose of 6 mg/kg, daily for 5 days (top left panel); at a high dose of 10 mg/kg on given intermittently on days 1, 3, and 5 (top middle panel); a single dose of 30 mg/kg on the same day of X-ray pre-treatment (top right panel); and non-treated left flank bearing xenograft tumor (bottom 3 panels). Each mouse received a total dose of 30 mg/kg fluorescent G3139.
On day 8, animals were sacrificed, subcutaneous and organs were resected, and counterstained with DAPI as an internal staining control for nucleus staining. The resected tissues were processed as in Example 1 described above and fluorescence intensity was recorded using a stereomicroscope (Zeiss, 40) and spot camera (Qimaging). The signal intensity was recorded in three areas of each sample and quantified using MCID Elite (Imaging Research) and averaged to yield the reported intensities.

[3] = human, in vivo, iv; cited from earlier work
[4] = in vivo, sc; cited from earlier work

Substance | tumor growth ([1]; 20 mg/kg IP every other day vs 10 mg/kg daily (total 280 mg/kg), 15-55 days post-implantation) | tumor growth ([1]; higher doses intermittently at 2-3 day intervals vs daily lower doses) | persistence of the oligonucleotide in tumor after administration of radiation and G3139 ([2]; iv, 30 mg/kg) | plasma half life [3] | time until plasma concentration becomes undetectable [3] | mean plasma half-life for elimination [4] | steady state plasma levels observed after the beginning of infusion [4] | staining of tumor cells [2]
oblimersen [G3139] | grew slower | grew slower | 7 days | about 60 minutes | ≤ 4 h | 7.46 h | 48 h | 
FAM-G3139: fluorescent G3139, F - TCTCCCAGCGTGCGCCAT-3′, phosphorothioate oligonucleotide targeting bcl-2 (all phosphorothioate, 5' {FAM}, sugars by position and methylation of C not given here) |  |  |  |  |  |  |  | no visible staining

From patent publication US20070270371A1, “Dosing and scheduling of oligomers” (priority 2006, published 2007)
